Experimental data taken from US20210198277A1, “AMINE-SUBSTITUTED ARYL OR HETEROARYL COMPOUNDS” (Epizyme, Inc., priority 2016, published 2021).
Structures can show the parent of a compound that is named as a salt.

The molecules below were run against T1, EHMT2 (Homo sapiens, UniProt Q96KQ7) (assay: MDA-MB-231 H3K9me2 in-cell Western assay (EHMT2 ICW)). Settings: Table II; MDA-MB-231 H3K9me2 in-cell Western; read-out: EHMT2 ICW (IC50 μM).
T1 construct: host or cells: MDA-MB-231
T1 sequence (Q96KQ7 1-1210): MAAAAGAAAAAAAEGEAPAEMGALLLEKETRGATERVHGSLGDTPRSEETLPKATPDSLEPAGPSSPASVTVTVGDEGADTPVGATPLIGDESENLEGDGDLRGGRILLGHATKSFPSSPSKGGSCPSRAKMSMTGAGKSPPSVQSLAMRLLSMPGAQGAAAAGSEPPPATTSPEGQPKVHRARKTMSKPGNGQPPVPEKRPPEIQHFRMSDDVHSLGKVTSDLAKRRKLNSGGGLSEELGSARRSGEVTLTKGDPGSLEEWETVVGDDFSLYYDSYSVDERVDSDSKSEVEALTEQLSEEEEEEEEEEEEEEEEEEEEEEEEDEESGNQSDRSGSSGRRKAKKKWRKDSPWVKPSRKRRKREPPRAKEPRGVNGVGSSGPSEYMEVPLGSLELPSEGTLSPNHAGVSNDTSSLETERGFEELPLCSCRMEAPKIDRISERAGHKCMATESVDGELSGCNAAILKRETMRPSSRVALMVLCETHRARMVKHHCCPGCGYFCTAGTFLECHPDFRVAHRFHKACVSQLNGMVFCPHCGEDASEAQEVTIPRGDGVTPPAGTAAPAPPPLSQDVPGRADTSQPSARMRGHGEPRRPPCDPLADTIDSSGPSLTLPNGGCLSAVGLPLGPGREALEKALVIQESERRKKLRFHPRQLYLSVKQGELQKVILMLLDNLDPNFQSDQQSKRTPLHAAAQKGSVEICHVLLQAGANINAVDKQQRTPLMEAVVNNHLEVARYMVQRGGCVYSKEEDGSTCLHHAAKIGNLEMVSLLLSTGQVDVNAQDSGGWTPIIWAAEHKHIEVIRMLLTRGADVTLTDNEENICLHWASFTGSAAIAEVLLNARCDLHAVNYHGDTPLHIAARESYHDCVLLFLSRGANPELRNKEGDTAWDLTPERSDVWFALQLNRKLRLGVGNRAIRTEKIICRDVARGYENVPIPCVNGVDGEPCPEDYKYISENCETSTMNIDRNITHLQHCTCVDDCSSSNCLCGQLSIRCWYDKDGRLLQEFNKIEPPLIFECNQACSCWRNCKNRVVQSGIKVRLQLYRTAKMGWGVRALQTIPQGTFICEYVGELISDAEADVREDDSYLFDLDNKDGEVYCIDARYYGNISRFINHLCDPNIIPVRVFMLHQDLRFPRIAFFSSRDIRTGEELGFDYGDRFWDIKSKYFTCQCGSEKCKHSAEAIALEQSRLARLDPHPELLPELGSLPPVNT
Type: cell-based
Text: RPMI/Glutamax medium, Penicillin-Streptomycin, Heat Inactivated Fetal Bovine Serum, and D-PBS were purchased from Life Technologies (Grand Island, N.Y., USA). Odyssey blocking buffer, 800CW goat anti-mouse IgG (H+L) antibody, and Licor Odyssey Infrared Scanner were purchased from Licor Biosciences, Lincoln, Nebr., USA. […] 16% Paraformaldehyde was purchased from Electron Microscopy Sciences, Hatfield, Pa., USA).MDA-MB-231 cells were maintained in complete growth medium (RPMI supplemented with 10% v/v heat inactivated fetal bovine serum) and cultured at 37° C. under 5% CO2. UNC0638 was purchased from Sigma-Aldrich (St. Louis, Mo., USA).
Compound (100 nL) was added directly to 384-well cell plate. MDA-MB-231 cells (ATCC) were seeded in assay medium (RPMI/Glutamax supplemented with 10% v/v heat inactivated fetal bovine serum and 1% Penicillin/Streptomycin, Life Technologies) at a concentration of 3,000 cells per well to a Poly-D-Lysine coated 384-well cell culture plate with 50 μL per well. […] Plates were incubated at room temperature for 30 minutes and then incubated at 37° C., 5% CO2 for additional 48 hours. After the incubation, 50 μL per well of 8% paraformaldehyde (Electron Microscopy Sciences) in PBS was added to the plates and incubated at room temperature for 20 minutes. […] Next, 60 μL per well of Odyssey blocking buffer (Licor Biosciences) was added to each plate and incubated for 1 hour at room temperature. Blocking buffer was removed and 20 μL of monoclonal primary antibody α-H3K9me2 (Abcam) diluted 1:800 in Odyssey buffer with 0.1% Tween 20 (v/v) were added and plates were incubated overnight (16 hours) at 4° C. Plates were washed 5 times with 100 μL per well of wash buffer. Next 20 μL per well of secondary antibody was added (1:500 800CW donkey anti-mouse IgG (H+L) antibody (Licor Biosciences), 1:1000 DRAQ5 (Cell Signaling Technology) in Odyssey buffer with 0.1% Tween 20 (v/v)) and incubated for 1 hour at room temperature. The plates were washed 5 times with 100 μL per well wash buffer then 2 times with 100 μL per well of water. Plates were allowed to dry at room temperature then imaged on a Licor Odyssey Infrared Scanner (Licor Biosciences) which measured integrated intensity at 700 nm and 800 nm wavelengths. Both 700 and 800 channels were scanned.
First, the ratio for each well was determined by:
The average of the ratio values for each well was calculated and used to determine the percent inhibition for each test well in the plate. Control compound was serially diluted three-fold in DMSO for a total of 10 test concentrations beginning at 1 μM. Percent inhibition was calculated as: […]
IC50 curves were generated using triplicate wells per concentration of compound. […] IC50 values were calculated using a non-linear regression (variable slope-four parameter fit model) with by the following formula: […]
`COc1ccc(Nc2nccc(NC(C)(C)C)n2)cc1OCCCN1CCCC1` [Compound 6, N^4-(tert-butyl)-N^2-(4-methoxy-3-(3-(pyrrolidin-1-yl)propoxy)phenyl)pyrimidine-2,4-diamine] showed an IC50 of 1 to 10 µM.
Molecule `COc1ccc(Nc2ccnc(NCC3CCNCC3)n2)cc1OCCCN1CCCC1` [Compound 7, 4-N-[4-methoxy-3-[3-(pyrrolidin-1-yl)propoxy]phenyl]-2-N-(piperidin-4-ylmethyl)pyrimidine-2,4-diamine hydrochloride] has an IC50 of 1 to 10 µM.
For `CC(=O)N1CCC(CNc2ccnc(Nc3ccc(Cl)c(OCCCN4CCCC4)c3)n2)CC1` [Compound 8, 1-(4-(((2-((4-chloro-3-(3-(pyrrolidin-1-yl)propoxy)phenyl)amino)pyrimidin-4-yl)amino)methyl)piperidin-1-yl)ethan-1-one], the IC50 was 1 to 10 µM.
`CNC(=O)c1cnc(Nc2ccc(OC)c(OCCCN3CCCC3)c2)nc1` [Compound 9, 2-((4-methoxy-3-(3-(pyrrolidin-1-yl)propoxy)phenyl)amino)-N-methylpyrimidine-5-carboxamide] was tested, and the IC50 was greater than 10 µM.
With `COc1ccc(Nc2cc(NCC3CCNCC3)ccn2)cc1OCCCN1CCCC1` [Compound 10, N^2-(4-methoxy-3-(3-(pyrrolidin-1-yl)propoxy)phenyl)-N^4-(piperidin-4-ylmethyl)pyridine-2,4-diamine] the IC50 was greater than 10 µM.
With `COc1cnc(Nc2ccnc(CNC3CCOCC3)c2)cc1OCCCN1CCCC1` [Compound 12, 5-methoxy-4-(3-(pyrrolidin-1-yl)propoxy)-N-(2-(((tetrahydro-2H-pyran-4-yl)amino)methyl)pyridin-4-yl)pyridin-2-amine] the IC50 was greater than 10 µM.
In the case of `COc1ccc(Nc2ccnc(N(C)CC3CCN(C(C)=O)CC3)c2)cc1OCCCN1CCCC1` [Compound 13, 1-(4-(((4-((4-methoxy-3-(3-(pyrrolidin-1-yl)propoxy)phenyl)amino)pyridin-2-yl)(methyl)amino)methyl)piperidin-1-yl)ethan-1-one], the IC50 is reported as greater than 10 µM.
With `COc1ccc(Nc2nccc(OCC3CCN(C(C)=O)CC3)n2)cc1OCCCN1CCCC1` [Compound 14, 1-(4-(((2-((4-methoxy-3-(3-(pyrrolidin-1-yl)propoxy)phenyl)amino)pyrimidin-4-yl)oxy)methyl)piperidin-1-yl)ethan-1-one] the IC50 was greater than 10 µM.
`COc1ccc(Nc2nccc(NCC3CCNCC3)n2)cc1OCC(O)CN1CCCC1` (stereo not drawn) [Compound 15, 1-(2-methoxy-5-((4-((piperidin-4-ylmethyl)amino)pyrimidin-2-yl)amino)phenoxy)-3-(pyrrolidin-1-yl)propan-2-ol] was tested, and the IC50 was greater than 10 µM.
Work on `COc1ccc(Nc2nc(NCC3CCNCC3)cc(N3CCCC3)n2)cc1OCCCN1CCCC1` [Compound 103] yielded an IC50 greater than 10 µM.
`COc1ccc(Nc2cc(CNC3CCNCC3)n(C)n2)cc1OCCCN1CCCC1` [Compound 126] was tested, and the IC50 was greater than 10 µM.
`COc1ccc(Nc2cc(CNC3CCOCC3)n(C)n2)cc1OCCCN1CCCC1` [Compound 127] showed an IC50 greater than 10 µM.
In the case of `COc1ccc(Nc2nccc(N3CCc4[nH]ncc4C3)n2)cc1OCCCN1CCCC1` [Compound 128], the IC50 is reported as greater than 10 µM.
In the case of `COc1ccc(Nc2nccc(-c3c(C)n[nH]c3C)n2)cc1OCCCN1CCCC1` [Compound 129], the IC50 is reported as greater than 10 µM.
Work on `COc1ccc(Nc2nccc(-c3c(C)noc3C)n2)cc1OCCCN1CCCC1` [Compound 130] yielded an IC50 greater than 10 µM.
With `COc1ccc(Nc2nccc(-c3c[nH]nc3C)n2)cc1OCCCN1CCCC1` [Compound 131] the IC50 was greater than 10 µM.
For `COc1ccc(Nc2nccc(N3CCN(C)C(=O)C3)n2)cc1OCCCN1CCCC1` [Compound 132], the IC50 was greater than 10 µM.
`COc1ccc(Nc2nccc(N3CCCNC(=O)C3)n2)cc1OCCCN1CCCC1` [Compound 133] was tested, and the IC50 was greater than 10 µM.
`COc1ccc(Nc2nccc(N3CCc4nc[nH]c(=O)c4C3)n2)cc1OCCCN1CCCC1` [Compound 134] showed an IC50 greater than 10 µM.
`COc1ccc(Nc2nccc(N(C)Cc3cccnc3)n2)cc1OCCCN1CCCC1` [Compound 135] was tested, and the IC50 was greater than 10 µM.
`COc1ccc(Nc2nccc(N(C)Cc3ccccn3)n2)cc1OCCCN1CCCC1` [Compound 136] was tested, and the IC50 was greater than 10 µM.
In the case of `COc1ccc(Nc2nccc(NC3COC3)n2)cc1OCCCN1CCCC1` [Compound 137], the IC50 is reported as greater than 10 µM.
Work on `COc1ccc(Nc2nccc(N3CCCN(C(C)=O)CC3)n2)cc1OCCCN1CCCC1` [Compound 138] yielded an IC50 greater than 10 µM.
`COc1ccc(Nc2nccc(N3CCN(C(C)=O)CC3)n2)cc1OCCCN1CCCC1` [Compound 139] gave an IC50 greater than 10 µM.
`COc1ccc(Nc2nccc(N(C)CCCO)n2)cc1OCCCN1CCCC1` [Compound 140] was tested, and the IC50 was greater than 10 µM.
With `COc1ccc(Nc2nccc(N3CCC(C)(O)CC3)n2)cc1OCCCN1CCCC1` [Compound 141] the IC50 was greater than 10 µM.
`COc1ccc(Nc2nccc(N(C)C3CCOCC3)n2)cc1OCCCN1CCCC1` [Compound 142] was tested, and the IC50 was greater than 10 µM.
`COCCCN(C)c1ccnc(Nc2ccc(OC)c(OCCCN3CCCC3)c2)n1` [Compound 143] showed an IC50 greater than 10 µM.
With `COc1ccc(Nc2nccc(CNC(C)=O)n2)cc1OCCCN1CCCC1` [Compound 144] the IC50 was greater than 10 µM.
Molecule `CC(=O)N1CCC(CNc2ccnc(Nc3ccc(C)c(OCCCN4CCCC4)c3)n2)CC1` [Compound 145] has an IC50 greater than 10 µM.
In the case of `COc1ccc(Nc2nccc(N(C)CC3CCOCC3)n2)cc1OCCCN1CCCC1` [Compound 146], the IC50 is reported as 1 to 10 µM.
`COc1ccc(Nc2nccc(N3CCC(C(C)(C)O)CC3)n2)cc1OCCCN1CCCC1` [Compound 147] gave an IC50 greater than 10 µM.
Work on `COc1ccc(Nc2nccc(N3CCC(O)CC3)n2)cc1OCCCN1CCCC1` [Compound 148] yielded an IC50 greater than 10 µM.
Work on `COc1ccc(Nc2nccc(N3CCC(OC)CC3)n2)cc1OCCCN1CCCC1` [Compound 149] yielded an IC50 greater than 10 µM.
Work on `COc1ccc(Nc2nccc(N(C)CCO)n2)cc1OCCCN1CCCC1` [Compound 150] yielded an IC50 greater than 10 µM.
Molecule `COc1ccc(Nc2nccc(N3CCCOCC3)n2)cc1OCCCN1CCCC1` [Compound 151] has an IC50 greater than 10 µM.
`COc1ccc(Nc2nccc(NC3CCS(=O)(=O)CC3)n2)cc1OCCCN1CCCC1` [Compound 152] showed an IC50 greater than 10 µM.
In the case of `COc1ccc(Nc2nccc(N3CCC(C(N)=O)CC3)n2)cc1OCCCN1CCCC1` [Compound 153], the IC50 is reported as greater than 10 µM.
`COc1ccc(Nc2nccc(N3CCNc4ccccc4C3)n2)cc1OCCCN1CCCC1` [Compound 154] was tested, and the IC50 was greater than 10 µM.
In the case of `COc1ccc(Nc2nccc(N3CCc4cn[nH]c4C3)n2)cc1OCCCN1CCCC1` [Compound 155], the IC50 is reported as greater than 10 µM.
In the case of `COc1ccc(Nc2nccc(N3CCc4ncncc4C3)n2)cc1OCCCN1CCCC1` [Compound 156], the IC50 is reported as greater than 10 µM.
Work on `COc1ccc(Nc2ccnc(OCC3CCN(C(C)=O)CC3)c2)cc1OCCCN1CCCC1` [Compound 157] yielded an IC50 greater than 10 µM.
